Source: publication PMC2009935, “Biological activities of dihydrodiols derived from two polycyclic hydrocarbons in rodent test systems” (British Journal of Cancer, 1979)

Assays:
Wistar rats = experiment: Induction of sarcomas after s.c. injection into Wistar rats
mouse skin [1] = experiment: Short-term test on mouse skin: suppression of sebaceous glands
mouse skin [2] = system: mouse skin
mouse skin [3] = conditions: total doses 75-150 ug in 3 applications
[4] = female Wistar rats, single s.c. injection 0.9 mg in olive oil, up to 9 months
[5] = single dose 25 ug, TPA promotion

In the case of `c1ccc2c(c1)cc1ccc3cccc4ccc2c1c34` [BP, benzo[a]pyrene, reference compound], the No. with sarcomas (Wistar rats; Table III, female Wistar rats, single s.c. injection 0.9 mg in 0.5 ml olive oil, up to 9 months, 30 animals) was 24, the “sarcomas induced in the group of rats” value (Wistar rats; [4]) was 24/30 and the “Sebaceous glands, No. present” value (mouse skin [1]; total dose 150.0 ug in 3 applications in acetone, 8 days after first treatment, 12 microscopic fields) was 0.0.

`Cc1c2ccccc2cc2c1ccc1ccccc12` [7-methylbenz[a]anthracene, reference compound] was tested, and the “tumour-initiating activity on mouse skin (in words)” value (mouse skin [2]; female CDI mice, single dose 25 ug in acetone on dorsal skin, TPA thrice weekly for 52 weeks) was “more active than the related 1,2-, 5,6- and 8,9-dihydrodiols” and the “skin-tumour incidence plateau, first or only, time after initiation” value (mouse skin [2]; [5]) was greater than 40 weeks.

`Cc1c2ccccc2cc2c3c(ccc12)C=C[C@@H](O)[C@@H]3O` (relative stereo) [1,2-dihydrodiol, trans-1,2-Dihydro-1,2-dihydroxy-7-methylbenz[a]anthracene] was tested, and the “tumour development in the initiated mice (in words)” value (mouse skin [2]; [5]) was “only really increased after the amount of TPA applied had been doubled”.

`Cc1c2c(cc3c1ccc1ccccc13)C=C[C@@H](O)[C@@H]2O` (relative stereo) [8,9-dihydrodiol, trans-8,9-dihydro-8,9-dihydroxy-7-methylbenz[a]anthracene] was tested, and the “tumour development in the initiated mice (in words)” value (mouse skin [2]; [5]) was “only really increased after the amount of TPA applied had been doubled”.

`O[C@H]1C=Cc2c(cc3ccc4cccc5ccc2c3c45)[C@@H]1O` (relative stereo) [trans-7,8-Dihydro-7,8-dihydroxy-BP, trans-7,8-Dihydro-7,8-dihydroxybenzo[a]pyrene] was tested, and the “induction of hyperplasia in mouse skin (in words)” value (mouse skin [3]) was “some activity as a hyperplastic agent”, the “sarcomas induced in the group of rats” value (Wistar rats; [4]) was “one” and the “activity as s.c. carcinogen in rats (in words)” value (Wistar rats; single s.c. injection 0.9 mg in olive oil) was “very much less active than benzo[a]pyrene as an s.c. carcinogen in rats”. For the same molecule, the “suppression of sebaceous glands in mouse skin (in words)” value (mouse skin [1]; total doses 75-150 ug in 3 applications) was “some activity”.
